# Earlier results in patent US20050250788A1, “Aqueous outflow enhancement with vasodilated aqueous cavity” (priority 2004, published 2005).
# Where a name gives a salt, the structure may show the parent alone.
# Columns and labels:
# [1] = for area under the plasma concentration time curve / mean peak plasma concentration (C(max)): multiple oral once-daily doses of 200 mg
# [2] = chronic, patients with essential hypertension
# [3] = not given; remark: listed apart in the source
# [4] = topical
# [5] = at low concentrations
# [6] = not given; remark: listed apart in the source
# [7] = test system: adrenergic (alpha(1), alpha(2) and beta), cholinergic, GABA, dopaminergic, histaminergic, serotonergic (5-HT1A, 5-HT1B, 5-HT2) or benzodiazepine binding sites
# [8] = test system: norepinephrine and dopamine neuronal reuptake
# [9] = placebo-controlled, normal volunteers
molecule,measurement,setting,value
N[C@H]1CC[C@@H](c2ccc(Cl)c(Cl)c2)c2ccccc21 [desmethylsertraline],elevation of plasma levels in the elderly,"[1]; elderly, following multiple dosing",3 fold
same,half-life,"[1]; metabolite, multiple oral once-daily doses of 200 mg sertraline",65 h
same,area under the plasma concentration time curve,[1],2300 ng·h/mL
same,mean peak plasma concentration (C(max)),[1],140 ng/mL
CNC(=O)Oc1ccc2c(c1)[C@]1(C)CCN(C)[C@@H]1N2C [eserine],output of clear fluid after administration into a glaucomatous eye,,increase the output of clear fluid
COc1cc2nc(N3CCN(C(=O)c4ccco4)CC3)nc(N)c2cc1OC [prazosin],decrease in mean arterial pressure compared with placebo baseline,[2],equivalent decreases
"CN[C@H]1CC[C@@H](c2ccc(Cl)c(Cl)c2)c2ccccc21 [Sertraline hydrochloride, (1S-cis)-4-(3,4-dichlorophenyl)-1,2,3,4-tetrahydro-N-methyl-1-nanphthalenamine hydrochloride]",solubility in ethanol,[3]; ethanol,sparingly soluble
same,solubility in isopropyl alcohol,[3]; isopropyl alcohol,slightly soluble
same,solubility in water,[3]; water,slightly soluble
cyclosporin-A,post-surgical increases in intraocular pressure,[4],reduce post-surgical increases in intraocular pressure
COc1ccccc1OCCNCC(O)c1ccc(C)c(S(N)(=O)=O)c1 (stereo not drawn) [5-[1-hydroxy-2-[2-(2-methoxyphenoxyl)ethylamino]ethyl]-2-methylbenzenesulfonamide],intraocular pressure reducing activity,[5],excellent intraocular pressure reducing activity
CC(N/C(=N\C#N)Nc1ccncc1)C(C)(C)C (stereo not drawn) [pinacidil],decrease in mean arterial pressure compared with placebo baseline,[2],equivalent decreases
C[C@H](CS)C(=O)N1CCC[C@H]1C(=O)O [captopril],decrease in mean arterial pressure compared with placebo baseline,[2],equivalent decreases
CN[C@H]1CC[C@@H](c2ccc(Cl)c(Cl)c2)c2ccccc21 [sertraline],dose proportionality,[1]; clinical dose range of 50 to 200 mg/day,Linear dose proportionality
same,area under the plasma concentration time curve,[1],2800 ng·h/mL
same,mean peak plasma concentration (C(max)),[1],190 ng/mL
same,increase of bioavailability by food,"[1]; oral, with food",about 40%
same,average terminal elimination half-life,[1]; single or multiple oral once-daily doses of 50 to 400 mg/day,approximately 26 hours
same,plasma protein bound,[6],Approximately 98%
same,affinity for binding sites,[7],no significant affinity
same,effects on norepinephrine and dopamine neuronal reuptake,[8],only very weak effects
same,psychomotor performance,[9],did not interfere with psychomotor performance
same,sedation,[9],did not cause sedation
CC[C@@H]1C(=O)OC[C@@H]1Cc1cncn1C [Pilocarpine],output of clear fluid after administration into a glaucomatous eye,,increase the output of clear fluid
